Reference: ChEMBL document CHEMBL1201862, “PubChem BioAssay data set” (2004)
Activity calls are given as the source filed them.

Experiments:
[1] = target: T1, Carboxy-terminal domain RNA polymerase II polypeptide A small phosphatase 1 (Homo sapiens, UniProt Q9GZU7); assay: CTDSP1 inhibitors, concentration-response, biochemical, absorbance readout, ultra-high-throughput screen actives (AID 540297); format: functional
T1 sequence (Q9GZU7 whole entry): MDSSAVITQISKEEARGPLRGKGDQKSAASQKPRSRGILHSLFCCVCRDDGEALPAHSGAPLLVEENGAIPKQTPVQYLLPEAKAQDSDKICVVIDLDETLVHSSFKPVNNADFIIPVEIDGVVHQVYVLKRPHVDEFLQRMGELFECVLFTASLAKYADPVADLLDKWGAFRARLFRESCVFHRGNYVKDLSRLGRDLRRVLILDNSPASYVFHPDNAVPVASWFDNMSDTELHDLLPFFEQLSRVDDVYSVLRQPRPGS

[2] = target: Mitochondrial peptide methionine sulfoxide reductase (Bos taurus, UniProt P54149); format: functional;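 further: absorbance read-out, biochemical high-throughput dose-response screen for MsrA inhibitors, confirmatory; recombinant bovine MsrA coupled to E. coli TrxB with NADPH and selenocystamine; potency is for inhibitors of MsrA activity on DMSO substrate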
Mitochondrial peptide methionine sulfoxide reductase, sequence (P54149 whole entry): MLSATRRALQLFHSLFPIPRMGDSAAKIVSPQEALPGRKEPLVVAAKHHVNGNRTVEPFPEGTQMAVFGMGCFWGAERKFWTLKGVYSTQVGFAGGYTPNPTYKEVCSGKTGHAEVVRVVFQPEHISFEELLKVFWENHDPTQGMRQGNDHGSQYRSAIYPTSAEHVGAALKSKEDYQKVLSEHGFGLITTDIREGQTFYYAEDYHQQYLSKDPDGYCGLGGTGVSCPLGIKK

[3] = target: Aryl hydrocarbon receptor (Homo sapiens, UniProt P35869); assay: Luminescence-based cell-based high throughput dose response assay for activators of the Aryl Hydrocarbon Receptor (AHR). [Related pubchem assays: 2796 (Primary screen (AHR activators in singlicate)), 2845 (Confirmation screen (AHR activators in triplicate)), 434939 (Counterscreen (PXR activators in triplicate)), 2804 (Summary (AHR activators))]; format: ADME
Aryl hydrocarbon receptor, sequence (P35869 whole entry): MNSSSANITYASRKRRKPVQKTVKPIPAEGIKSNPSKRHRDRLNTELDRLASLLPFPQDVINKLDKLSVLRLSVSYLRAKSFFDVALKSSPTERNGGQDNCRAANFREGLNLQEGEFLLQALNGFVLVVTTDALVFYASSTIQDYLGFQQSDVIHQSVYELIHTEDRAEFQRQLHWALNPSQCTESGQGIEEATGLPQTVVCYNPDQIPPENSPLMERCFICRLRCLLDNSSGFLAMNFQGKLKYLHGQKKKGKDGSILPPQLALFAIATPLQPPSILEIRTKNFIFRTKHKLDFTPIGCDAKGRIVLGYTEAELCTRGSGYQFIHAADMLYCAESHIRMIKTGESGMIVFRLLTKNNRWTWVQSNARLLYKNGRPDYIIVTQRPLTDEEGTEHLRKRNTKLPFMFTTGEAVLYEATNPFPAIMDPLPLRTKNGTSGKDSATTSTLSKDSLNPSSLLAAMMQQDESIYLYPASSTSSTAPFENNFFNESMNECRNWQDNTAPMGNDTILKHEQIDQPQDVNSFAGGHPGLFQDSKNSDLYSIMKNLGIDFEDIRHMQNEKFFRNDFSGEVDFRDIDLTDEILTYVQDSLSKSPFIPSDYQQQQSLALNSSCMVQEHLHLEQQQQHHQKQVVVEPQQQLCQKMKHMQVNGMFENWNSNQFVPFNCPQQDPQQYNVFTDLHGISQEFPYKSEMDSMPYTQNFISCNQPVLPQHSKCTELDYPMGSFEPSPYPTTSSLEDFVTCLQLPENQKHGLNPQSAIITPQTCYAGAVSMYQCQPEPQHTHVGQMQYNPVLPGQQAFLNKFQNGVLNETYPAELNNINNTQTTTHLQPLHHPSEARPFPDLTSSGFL

[4] = target: T2, NADPH oxidase 1 (Homo sapiens, UniProt Q9Y5S8); format: functional, cell-based
T2 sequence (Q9Y5S8 whole entry): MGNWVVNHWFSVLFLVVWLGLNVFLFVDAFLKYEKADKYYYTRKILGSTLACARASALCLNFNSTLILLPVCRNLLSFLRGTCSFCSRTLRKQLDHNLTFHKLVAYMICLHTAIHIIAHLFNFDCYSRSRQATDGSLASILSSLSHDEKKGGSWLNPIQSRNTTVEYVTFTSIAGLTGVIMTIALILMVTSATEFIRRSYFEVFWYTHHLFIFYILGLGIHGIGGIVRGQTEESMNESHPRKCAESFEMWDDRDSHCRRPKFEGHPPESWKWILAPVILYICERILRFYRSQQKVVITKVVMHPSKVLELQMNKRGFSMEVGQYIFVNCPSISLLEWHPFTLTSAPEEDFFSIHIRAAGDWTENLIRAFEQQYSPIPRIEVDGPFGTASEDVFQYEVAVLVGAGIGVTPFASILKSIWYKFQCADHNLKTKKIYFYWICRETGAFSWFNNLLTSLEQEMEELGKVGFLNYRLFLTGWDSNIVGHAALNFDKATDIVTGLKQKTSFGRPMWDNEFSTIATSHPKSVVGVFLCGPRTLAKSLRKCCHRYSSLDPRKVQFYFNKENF

[5] = target: T2, NADPH oxidase 1; assay: Late-stage luminescence-based cell-based dose response assay to identify inhibitors of NADPH oxidase 1 (NOX1): Synthesized analogs.; format: functional
[6] = target: T2, NADPH oxidase 1; assay: Luminescence-based cell-based dose response assay to identify inhibitors of NADPH oxidase 1 (NOX1).; format: functional
[7] = target: Bifunctional protein GlmU (Mycobacterium tuberculosis, UniProt P9WMN3); assay: Inhibitors of Mycobacterial Glucosamine-1-phosphate acetyl transferase (GlmU). Secondary screen.; set-up: species or system Mycobacterium tuberculosis H37Rv
Bifunctional protein GlmU, sequence (P9WMN3 whole entry): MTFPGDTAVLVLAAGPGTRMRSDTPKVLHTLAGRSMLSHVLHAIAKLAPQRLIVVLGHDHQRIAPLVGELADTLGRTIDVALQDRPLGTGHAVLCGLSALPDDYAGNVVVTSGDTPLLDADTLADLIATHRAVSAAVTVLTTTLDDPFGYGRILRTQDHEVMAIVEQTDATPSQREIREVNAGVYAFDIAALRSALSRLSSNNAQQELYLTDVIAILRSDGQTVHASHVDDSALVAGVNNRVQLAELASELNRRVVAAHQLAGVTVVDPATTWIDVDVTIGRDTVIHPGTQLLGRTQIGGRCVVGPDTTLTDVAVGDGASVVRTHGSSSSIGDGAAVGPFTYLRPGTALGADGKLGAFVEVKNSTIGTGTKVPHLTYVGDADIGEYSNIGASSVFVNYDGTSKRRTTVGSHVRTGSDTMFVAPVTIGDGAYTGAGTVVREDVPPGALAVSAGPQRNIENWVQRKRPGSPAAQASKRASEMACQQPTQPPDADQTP

[8] = NIH-3T3 fibroblast cytotoxicity, dose response, cytotoxicity control, cell-based, fluorescence, Alamar Blue, secondary assay (AID 2327); format: functional;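 further: NIH-3T3 mouse fibroblasts cultured with fluconazole at 8 µg/mL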
[9] = target: T3, Zinc finger protein mex-5 (Caenorhabditis elegans, UniProt Q9XUB2); assay: potency of MEX-5 RNA-binding blockers – biochemical, C. elegans, fluorescence polarization, dose response (AID 1960)
T3 sequence (Q9XUB2 whole entry): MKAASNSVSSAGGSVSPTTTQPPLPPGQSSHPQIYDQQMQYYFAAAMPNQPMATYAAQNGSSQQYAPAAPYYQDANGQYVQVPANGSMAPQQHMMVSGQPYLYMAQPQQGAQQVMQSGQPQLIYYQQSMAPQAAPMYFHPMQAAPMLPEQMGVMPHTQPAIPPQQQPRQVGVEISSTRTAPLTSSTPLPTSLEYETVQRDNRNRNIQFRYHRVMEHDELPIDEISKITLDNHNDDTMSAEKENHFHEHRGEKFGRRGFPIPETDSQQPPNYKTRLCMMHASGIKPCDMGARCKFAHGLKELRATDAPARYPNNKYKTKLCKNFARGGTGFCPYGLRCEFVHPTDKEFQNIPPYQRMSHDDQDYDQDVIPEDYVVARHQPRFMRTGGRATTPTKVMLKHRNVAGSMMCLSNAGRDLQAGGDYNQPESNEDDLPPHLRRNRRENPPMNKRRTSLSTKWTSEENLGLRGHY

[10] = mitochondrial function rescue without frataxin homolog – Friedreich's ataxia, plus single-dose screen, dose response (AID 1465); format: functional;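 further: yeast depleted of Yfh1p frataxin homolog grown on glycerol needing respiration; WST-1 tetrazolium dye reduction as measure of cellular dehydrogenase metabolic activity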
[11] = target: Induced myeloid leukemia cell differentiation protein Mcl-1 (Homo sapiens, UniProt Q07820); format: functional
Induced myeloid leukemia cell differentiation protein Mcl-1, sequence (Q07820 whole entry, the tested form may be a part): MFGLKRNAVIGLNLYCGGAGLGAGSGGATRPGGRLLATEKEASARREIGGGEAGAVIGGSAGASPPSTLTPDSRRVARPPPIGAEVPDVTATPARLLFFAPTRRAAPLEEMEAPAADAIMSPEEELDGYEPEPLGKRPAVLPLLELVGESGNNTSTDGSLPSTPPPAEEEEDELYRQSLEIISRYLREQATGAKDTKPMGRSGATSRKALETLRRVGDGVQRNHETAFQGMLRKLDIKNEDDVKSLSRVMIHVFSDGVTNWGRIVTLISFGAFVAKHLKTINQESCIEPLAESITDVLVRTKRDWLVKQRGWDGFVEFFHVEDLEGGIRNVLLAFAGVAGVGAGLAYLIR

[12] = target: T4, RNA-binding protein pos-1 (Caenorhabditis elegans, UniProt G5EF15); assay: disruptors of C. elegans POS-1 RNA interaction – biochemical, fluorescence polarization, dose response (AID 1964);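 further: purified POS-1 fused to maltose binding protein made in E. coli; potency of compounds blocking POS-1 binding to fluorescent RNA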
T4 sequence (G5EF15 whole entry): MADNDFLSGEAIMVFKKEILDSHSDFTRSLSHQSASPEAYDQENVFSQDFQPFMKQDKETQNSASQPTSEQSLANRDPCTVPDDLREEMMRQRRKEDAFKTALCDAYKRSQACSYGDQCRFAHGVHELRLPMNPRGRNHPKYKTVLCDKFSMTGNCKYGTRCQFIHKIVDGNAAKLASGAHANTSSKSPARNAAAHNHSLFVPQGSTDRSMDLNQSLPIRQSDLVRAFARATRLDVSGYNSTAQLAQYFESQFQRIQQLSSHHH

[13] = fluconazole-exposed Candida albicans growth modulators – fluorescence, retest, confirmation (AID 2467); format: functional, cell-based
[14] = A High Throughput Confirmatory Assay used to Identify Novel Compounds that Inhibit Mycobacterium Tuberculosis in the absence of Glycerol.; format: functional
[15] = target: T5, Bcl-2-related protein A1 (Mus musculus, UniProt Q07440); assay: small-molecule antagonists of Bfl-1/BH3 interaction – biochemical, TR-FRET, mouse Bfl-1, confirmation (AID 621);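 further: TR-FRET binding of GST-Bfl-1 to FITC-labelled Bid peptide via terbium antibody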
T5 sequence (Q07440 whole entry): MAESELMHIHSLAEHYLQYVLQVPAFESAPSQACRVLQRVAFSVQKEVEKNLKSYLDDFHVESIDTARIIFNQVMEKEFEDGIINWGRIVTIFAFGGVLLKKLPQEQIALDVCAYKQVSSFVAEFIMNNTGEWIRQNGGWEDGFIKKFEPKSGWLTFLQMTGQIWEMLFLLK

[16] = target: T5, Bcl-2-related protein A1; assay: Bfl-1 binding inhibitors, SAR follow-up, biochemical, fluorescence polarization (AID 1070)
[17] = target: Glyceraldehyde-3-phosphate dehydrogenase (Homo sapiens, UniProt P04406)
Glyceraldehyde-3-phosphate dehydrogenase, sequence (P04406 whole entry): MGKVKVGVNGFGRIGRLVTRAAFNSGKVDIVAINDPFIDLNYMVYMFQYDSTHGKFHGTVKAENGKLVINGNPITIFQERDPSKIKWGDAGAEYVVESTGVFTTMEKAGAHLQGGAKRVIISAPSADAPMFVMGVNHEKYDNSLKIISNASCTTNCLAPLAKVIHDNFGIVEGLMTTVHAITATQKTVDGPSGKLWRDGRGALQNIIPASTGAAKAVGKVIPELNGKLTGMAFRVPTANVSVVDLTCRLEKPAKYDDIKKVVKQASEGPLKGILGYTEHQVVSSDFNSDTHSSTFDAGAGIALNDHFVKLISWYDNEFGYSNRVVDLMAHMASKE

In the case of `O=C(N/N=C/c1ccco1)c1ccc(C(=O)N/N=C/c2ccco2)o1`, the IC50 [1] is reported as 4.92 µM (active), the IC50 [2] is reported as 114 µM (inactive) and the EC50 [3] is reported as 5.21 µM (active).

For `O=[N+]([O-])c1cccc(-c2nc(-c3ccccc3)c(-c3ccccc3)[nH]2)c1`, the IC50 [4] was > 17 µM (not active).

For `O=S1(=O)c2ccccc2Nc2ccccc21`, the IC50 [5] was > 50 µM (not active) and the IC50 [6] was 6.6 µM (active).

For `CN(C)S(=O)(=O)c1cccc(NC(=S)N/N=C/c2ccc(O)c(O)c2O)c1`, the IC50 [7] was 68.4 µM (active), the EC50 [8] was > 150 µM (inactive) and the EC50 [9] was 3.48 µM (active). The EC50 [10] was > 100 µM (active), the IC50 [11] was 1.17 µM (active) and the EC50 [12] was 15 µM (active). For the same compound, the EC50 [13] was > 38 µM (not active).

In the case of `CCc1nc2ccccc2c(C(=O)Nc2cc(C)ccc2C)c1C`, the IC50 [14] is reported as > 100 µM (active).

In the case of `O=C1C(Cl)=C(N2CCOCC2)C(=O)N1c1ccc(Cl)nc1`, the IC50 [15] is reported as 15.1 µM (active), the IC50 [16] is reported as 12.6 µM (active) and the IC50 [17] is reported as > 100 µM (not active).
